Assay results taken from patent US9109003B2, “Extraction method for Ilex kudingcha C. J. Tseng leaves, total saponins and use thereof” (Peking University, priority 2011, dated 2015).

Tested on: ApoE−/− mice
Assay: Arteriosclerotic area of ApoE−/− mice aortic outflow tract
Type: in vivo
Details: high fat diet, vs HG (p<0.01), atorvastatin 50 mg/kg/d, total saponins 300 mg/kg/d, 6 weeks
Excerpt: ApoE−/− mice were divided into four groups randomly by weight.
(1) Negative control group (CG): mice in this group were fed normally for 7 weeks, and intragastrically administrated with normal saline.
(2) High fat control group (HG): mice in this group were fed with high fat diet containing 0.2% cholesterol for 7 weeks, and intragastrically administrated with normal saline every day simultaneously.
(4) I. kudingcha total saponin therapeutic group (SG): the course of treatment is similar to that of AG, with the only difference between SG and AG lies in that the dosage of the total saponins from I. kudingcha is 300 mg/kg/d.
Effect of total saponins from I. kudingcha leaves on arteriosclerotic area of ApoE−/− mice aortic outflow tract is shown in FIG. 7.

CC(C)c1c(C(=O)Nc2ccccc2)c(-c2ccccc2)c(-c2ccc(F)cc2)n1CC[C@@H](O)C[C@@H](O)CC(=O)O [atorvastatin]
inhibition rate of formation of atherosclerotic plaque of aortic outflow tract: about 40%
